According to US8754233B2, “Pyrazolylbenzothiazole derivatives and their use as therapeutic agents” (Dermira (Canada), Inc., priority 2002, dated 2014):
Values belong to the compound of their own block, whether it stands above or below them.

What was measured:
K5P5 podocyte cell line = experiment: Survival assay in podocytes (PAN treatment, MTS); format: cell-based, murine; details: for IC50: Mus musculus, PAN treated, MTS; for % Survival: PAN treated K5P5 podocytes
Text: The treatment of glomerular visceral epithelial cells (podocytes) with high concentrations of puromycin aminonucleoside (PAN) causes significant cytotoxic effects. An assessment of cell viability subsequent to a cytotoxic exposure can be judged qualitatively by examining changes in cell phenotype after staining with crystal violet or determined quantitatively by employing a cytotoxic assay using the soluble tetrazolium salt [3-(4,5-dimethylthiazol-2-yl)-5-(3-carboxymethoxyphenyl)-2-(4-sulfophenyl)-2H-tetrazolium, inner salt] (MTS). Such a system can be used to evaluate the survival effects that ILK compounds have on podocytes following exposure to PAN or other cytotoxic agents.
The cell line employed for the podocyte model was the murine K5P5. […] The cells should be propagate to a maximum of 20 passages.
The flasks were incubated at 37° C., 5% CO2 for 3 days.
The flasks were incubated at 37° C., 5% CO2 for 4 days.
Cells were trypsinized (0.25%), collected from the tissue culture flasks centrifuged, resuspended and counted. […] The flasks were incubated at 37° C., 5% CO2 for 3 days.
10 μl of this 10× compound solution is added to the 80 μl of cells already present in the 96-well plates. For cell undergoing cytotoxic treatment, puromycin aminonuceloside (PAN, Sigma P7130) was added at a 10× concentration to 90 μl of cells. The positive control is PAN treatment without compound. The negative control is 100% DMSO diluted to the same factor as the compounds without PAN.
The plates are incubated at 37° C., 5% CO2 for 48 to 72 hours depending on the PAN concentration (i.e. lower concentrations of PAN required a longer incubation period). The medium is aspirated after plates are spun at 2400 rpm for 10 min at ambient temperature. 100 μl of 1×DPBS (without CaCl2, without MgCl2) is added to each well.
The MTS (Promega) is prepared under low lighting conditions by dissolving 4.0 g of MTS in 1.8 I of 1×DPBS. The solution is allowed to sit for 10 minutes and pH adjusted to 6.2. […] Absorbance is measured at 490 nm wavelength with a microplate reader.

[1] = test system: IFNg on ConA 1° splenocytes; experiment: Inhibition of IFNγ release from ConA-stimulated splenocytes; format: cell-based, mouse; details: ConA-stimulated Balb/c splenocytes, 18-24 hours, ELISA
Method: T-lymphocytes obtained from mice spleens are a suitable sample for studying the activation properties of this immunologically important cell type. T-lymphocytes are the main regulators for inflammation. Concanavalin A (ConA) is an effective activator of T-lymphocytes, which allows T-lymphocytes to proliferate and produce inflammatory cytokines, such as Interferon (IFNγ) and regulatory cytokines, such as Interleukin 10 (IL-10).
The spleens were transferred onto mesh screen containing 10 ml of ice cold RPMI-5 (1× sodium pyruvate and 5% FBS) and gently ground with a pestle. The cell suspensions were centrifuged at 1500 rpm for 6 minutes at 4° C. […] The supernatant was discarded and the pellet washed two additional times. The cells were resuspended in RPMI-5 and the cell suspensions combined. The cells were counted and their concentration was adjusted to 2.8×10^6 cells/ml using RPMI-5.
(§1) The working concentration of ConA was […]. A 20× working concentration of Concanavalin A was […] was prepared using RPMI-5. The test compounds, dimethylsulfoxide (DMSO) negative vehicle control and staurosporine positive control were diluted twenty times using RPMI-5. Ten μL each of DMSO and staurosporine were combined with 180 μl of medium containing splenocytes in the wells, and 10 μl of 50 μg/ml ConA was immediately added. Medium without ConA was added to the control wells. […] The plates were incubated at 37° C. in 5% CO2 in humidified conditions overnight (18-24 hours) for INFγ.
At the completion of the stimulation described above, the plates were spun at 2000 rpm for 10 minutes. The supernatants (100 μl) from each well were transferred to fresh plates for INFγ analysis by ELISA.
INFγ levels in the supernatants from stimulated lymphocytes were determined with PharMingen's OptEIA™ INFγ Kit (PharMingen) according to manufacturer's directions. The data, shown in Table 2 infra, is represented as a percentage of INFγ inhibition by the following formula: INFγ inhibition=100−(AVG treatment/AVG DMSO control)*100.

ConA 1° splenocytes = experiment: Survival of ConA 1° splenocytes (cytotoxicity by MTS staining); format: cell-based, mouse; details: ConA-stimulated splenocytes
Method: as §1
(MTS). The MTS solution was made fresh and under low light. The electron coupling reagent phenazine methosulfate (PMS) was added at the time of the assay. Twenty μL of MTS solution per 100 μl of tissue culture medium was added to each well. The plates were incubated 37° C. for 4 hours for unstimulated and 18-24 ConA stimulated splenocytes. The absorbance was read at 490 nm wavelength. A kit available to do this assay is “CellTiter 96® AQ Kit AQueous Kit (G5421)” by Promega.

TNFa on macrophages = experiment: Inhibition of TNFα release from stimulated macrophages; format: cell-based, mouse; details: Mus musculus, Macrophage; LPS and IFN-γ stimulated primary macrophages, ELISA
Method: Peritoneal exudate macrophages were isolated by peritoneal lavage with ice-cold sterile physiological saline 24 hours after intraperitoneal injection of BALB/c mice with 0.5 mL of sterile Zymosan A (1 mg/0.5 mL 0.9% saline). […] Murine primary macrophage will get activated following incubation with LPS in the presence of sub-optimal doses of IFN-γ. […] TNF-αlevels in the supernatants from stimulated macrophages were determined with PharMingen's OptEIA TNF-α kit (PharMingen). The experiment was performed at room temperature, about 21° C., unless otherwise stated. The microwells (F8 MaxiSorp™ Loose/Nunc-Immuno Module; Gibco/BRL) were coated with 100 μl/well of capture antibody (at the recommended concentration) and incubated overnight at 4° C. […] Next, the solution was removed and the plates were washed 5× with wash buffer. The TNF-αanalysis was initiated by adding duplicate samples (100 μl/well) or standards (100 μl/well) in diluent buffer which were incubated for 2 h. The solution was removed and the plates washed 5× with wash buffer. Enzyme reagent (100 μl) containing biotinylated mouse TNF-αmonoclonal antibody and avidin-horseradish peroxidase conjugate (at concentrations recommended by the manufacturer) was added to each well. The plate was incubated for 1 hour, the solution removed, and the plates washed 7× with wash buffer. […] Colour development was terminated by adding 50 μl of 2N H2SO4. […] Peritoneal exudate macrophages were isolated by peritoneal lavage with ice-cold sterile physiological saline 24 hours after intraperitoneal injection of BALB/c mice with 0.3 ml of sterile zymosan A (1 mg/0.5 mL 0.9% saline). […] All treatments were replicated six times. Cells were incubated for an additional 24 hours, and cell free culture supernatants from each well were collected for NO and cytokine determination. The remaining cells were stained with crystal violet to determine effect of the compound on cell survival.

MCP1 on HUVECS = experiment: Inhibition of MCP-1 release from TNFα-stimulated HUVEC; format: cell-based, human; details: Homo sapiens, 18-24 hours, ELISA
Text: The activation of endothelial cells by pro-inflammatory cytokine TNF-α leads to the production of several chemokines. The release of these chemokines play an important role in leukocyte trafficking and extravasation of leukocytes into tissue during inflammation. MCP-1 and IL-8 are among the chemokines released upon stimulation of human endothelial cells (HUVECs) by TNFα, and contribute to migration of monocytes to the sites of inflammation. Cells should not be passaged more than 6 times.
Cells were maintained and grown in tissue culture flasks (T75) in endothelial cell growth medium (EGM, Clonetics) containing 5 additional supplements (EGM-5) in medium [human recombinant endothelial growth factor (hEGF), hydrocortisone (HC), bovine brain extract (BBE), fetal bovine serum (FBS) and Gentamycin (GA)] incubated at 37° C., 5% CO2. The cells should be propagated a maximum of 20 passages.
The plates were incubated overnight at 37° C., 5% CO2 to enable the cells to attach and grow.
The working concentration of TNFα was 1,000 pg/ml. A twenty times working concentration of TNFα was 20,000 pg/ml was prepared using EGM-5. The test compounds, DMSO negative vehicle control and staurosporine positive control were diluted 20× using EGM-5. Ten μL each of the compounds, DMSO and staurosporine were combined with 180 μl of medium containing HUVEC cells. Immediately following the addition of the compounds, 10 μl of […] TNFα was added to the wells. Medium without TNFα was added to the control wells. […] The plates were incubated at 37° C. in 5% CO2 in humidified conditions overnight (18-24 hours) for TNFα.
At the completion of the stimulation, the plates were spun at 2000 rpm for 10 minutes. The supernatants from each well were transferred to fresh plates for MCP1 analysis by ELISA.
[…] were determined with PharMingen's OptEIA™ MCP1 Kit (PharMingen) according to manufacturer's instructions.
The data is represented as a percentage of MCP1 inhibition by the following formula: % MCP1 inhibition=100−(AVG treatment/AVG DMSO control)*100.

macrophages = experiment: Survival of macrophages; format: cell-based, mouse; details: Mus musculus, Macrophage; stimulated primary macrophages
Method: Peritoneal exudate macrophages were isolated by peritoneal lavage with ice-cold sterile physiological saline 24 hours after intraperitoneal injection of BALB/c mice with 0.3 ml of sterile zymosan A (1 mg/0.5 mL 0.9% saline). […] 1.5×10^5 cells/well were seeded in 96-well plates and followed by 3 hour incubation at 37° C. with 5% CO2 (macrophages were allowed to attach) cells were stimulated with LPS ([…]/mL) and IFN-γ (100 U/mL) in the absence or presence of the test compounds. All treatments were replicated six times. Cells were incubated for an additional 24 hours, and cell free culture supernatants from each well were collected for NO and cytokine determination. The remaining cells were stained with crystal violet to determine effect of the compound on cell survival.

IC50 (TNFa on macrophages): > 25 µM
Structure (SMILES): Nc1n[nH]c(CCCO)c1-c1nc2ccccc2s1 [3-(5-Amino-4-benzothiazol-2-yl-2H-pyrazol-3-yl)-propan-1-ol]
IC50 (MCP1 on HUVECS): ~25 µM

IC50 ([1]; Mus musculus, Splenocyte): 0.5 µM
Structure (SMILES): CNCc1ccc2nc(-c3c(C)n[nH]c3N)sc2c1 [5-Methyl-4-(6-methylaminomethylbenzothiazol-2-yl)-2H-pyrazol-3-ylamine]
IC50 (ConA 1° splenocytes; Mus musculus, Splenocyte): 0.9 µM

IC50 (TNFa on macrophages): > 25 µM
Structure (SMILES): Cc1n[nH]cc1-c1nc2ccccc2s1 [2-(3-Methyl-1H-pyrazol-4-yl)-benzothiazole]
IC50 (macrophages): > 25 µM
IC50 (MCP1 on HUVECS): > 25 µM

IC50 (TNFa on macrophages): > 25 µM
Structure (SMILES): Nc1n[nH]cc1-c1nc2ccc(F)cc2s1 [4-(6-Fluorobenzothiazol-2-yl)-1H-pyrazol-3-ylamine]
IC50 (macrophages): > 25 µM
IC50 (MCP1 on HUVECS): ~25 µM

IC50 (TNFa on macrophages): > 25 µM
Structure (SMILES): Nc1[nH]nc(N2CCNCC2)c1-c1nc2ccccc2s1 [4-Benzothiazol-2-yl-5-piperazin-1-yl-2H-pyrazol-3-ylamine]
IC50 (macrophages): > 25 µM

Second part, the compound before the results:

Structure (SMILES): COc1cc2sc(-c3c(-c4ccco4)n[nH]c3N)nc2cc1F [4-(5-Fluoro-6-methoxybenzothiazol-2-yl)-5-furan-2-yl-2H-pyrazol-3-ylamine]
IC50 (K5P5 podocyte cell line): 2.5 µM

Structure (SMILES): Cc1cc2sc(-c3cn[nH]c3N)nc2cc1F [4-(5-Fluoro-6-methylbenzothiazol-2-yl)-2H-pyrazol-3-ylamine]
IC50 ([1]; Mus musculus, Splenocyte): > 25 µM
IC50 (ConA 1° splenocytes; Mus musculus, Splenocyte): > 25 µM

Structure (SMILES): Cc1n[nH]c(N)c1-c1nc2cc(F)c(S(=O)(=O)NCCO)cc2s1 [2-(5-Amino-3-methyl-1H-pyrazol-4-yl)-5-fluorobenzothiazole-6-sulfonic acid (2-hydroxy-ethyl)-amide]
IC50 (ConA 1° splenocytes; Mus musculus, Splenocyte): > 25 µM
% Survival (K5P5 podocyte cell line; @ 25 μM): 30%

Structure (SMILES): COc1ccc2nc(-c3c(N4CCNCC4)n[nH]c3N)sc2c1 [4-(6-Methoxybenzothiazole)-5-piperizin-1-yl-2H-pyrazol-3-ylamine]
IC50 [1]: 5.9 µM
IC50 (ConA 1° splenocytes): 20.5 µM

Structure (SMILES): Cc1n[nH]c(N)c1-c1nc2cc(F)c(S(N)(=O)=O)cc2s1 [2-(5-Amino-3-methyl-1H-pyrazol-4-yl)-5-fluoro-benzothiazole-6-sulfonic acid amide]
IC50 (TNFa on macrophages): 0.9 µM
% Survival (K5P5 podocyte cell line; @ 12.5 μM): 30%

Structure (SMILES): COc1cc2sc(-c3c(NCCCN(C)C)n[nH]c3N)nc2cc1F [N^3-(3-Dimethylaminopropyl)-4-(5-fluoro-6-methoxybenzothiazole)-1H-pyrazole-3,5-diamine]
IC50 [1]: 10.2 µM
IC50 (ConA 1° splenocytes): ~25 µM

Structure (SMILES): COc1cc2sc(-c3c(-c4ccncc4)n[nH]c3N)nc2cc1F [4-(5-Fluoro-6-methoxybenzothiazol-2-yl)-5-pyridin-4-yl-2H-pyrazol-3-ylamine]
IC50 (ConA 1° splenocytes; Mus musculus, Splenocyte): > 25 µM
IC50 (TNFa on macrophages): > 25 µM
IC50 (macrophages): > 25 µM
IC50 (MCP1 on HUVECS): > 25 µM

Structure (SMILES): CNS(=O)(=O)c1cc2sc(-c3c(N)n[nH]c3C)nc2cc1F [2-(3-Amino-5-methyl-1H-pyrazol-4-yl)-5-fluorobenzothiazole-6-sulfonic acid methylamide]
IC50 ([1]; Mus musculus, Splenocyte): 0.368 µM

Structure (SMILES): CNS(=O)(=O)c1ccc2nc(-c3c(N)n[nH]c3C)sc2c1 [2-(3-Amino-5-methyl-1H-pyrazol-4-yl)benzothiazole-6-sulfonic acid methylamide]
IC50 (K5P5 podocyte cell line): 12.5 µM

Structure (SMILES): Cc1n[nH]c(N)c1-c1nc2ccc(CN(C)C)cc2s1 [4-(6-Dimethylaminomethylbenzothiazol-2-yl)-5-methyl-2H-pyrazol-3-ylamine]
IC50 (K5P5 podocyte cell line): 12.5 µM
